The source of these data is patent US8927506B2, “Acetates of 2-deoxy monosaccharides with anticancer activity” (Board of Regents, The University of Texas System, priority 2008, dated 2015).

Data set [1] concerns pancreatic Colo357-FG cell line. Kind of data set: In vitro activity in pancreatic Colo357-FG cell line. The class given is cell-based. The conditions noted are these: COLO 357/FG; Colo357FG pancreatic cell line; concentration reducing cell viability to half. From the text: As used herein, reference to “IC50” is intended to refer to the concentration of a compound or composition that reduces the viability of cells to half the original level. In broader terms, IC50 can refer to half the maximal inhibitory concentration of a substance for inhibiting various biological processes.
In vitro activity in pancreatic Colo357-FG cell line is provided below in Table 1.

Data set [2] can be described thus: Preliminary biodistribution / pharmacokinetic study by oral gavage, 2-DG content in plasma and brain by LC/MS/MS. The data set is classed as in vivo. To be noted: CD-1 mice. From the text: Analytical methodologies (LC/MS/MS) were developed that are capable of quantifying these acetate sugars and the resulting liberation of 2-DG in various biomatrices (plasma and brain tissue). Using this analytical method preliminary biodistribution studies were undertaken in CD-1 mice to examine the pharmacokinetics of these novel agents.
Briefly, four animals per treatment group were given equivalent doses of either 2-DG, the compound of Example 6 (6-O-acetate of 2-DG) or the compound of Example 4 (4,6-di-O-acetate of 2-DG) by oral gavage using the same vehicle. Individual groups of animals were then sacrificed at 0.25, 0.5, 1, 2 and 4 hours following dose administration. From each animal plasma and brain tissues were harvested and then analyzed for 2-DG content by LC/mass spectrometry.

Regarding `CC(=O)OC1CC(O)C(O)C(CO)O1` [Example 1, 1-O-Acetyl-2-deoxy-D-glucose], it took 11.9 mM to reach half-maximal inhibition in data set [1] (IC50).

Consider `OCC1OC(O)CC(O)C1O` (stereo not shown) [Example 2-DG, 2-deoxy-glucose, reference compound], for which the “highest attained brain tissue concentration of 2-DG” value in data set [2] (at 2 hrs after administration) is recorded as 12 μg/gm. Moreover, in data set [1], the IC50 came to 9.7 mM.

Consider `CC(=O)OCC1OC(OC(C)=O)CC(O)C1O` (stereo not shown) [Example 3], for which the IC50 in data set [1] came out at 17.2 mM.

In data set [1], `CC(=O)OCC1OC(O)CC(O)C1OC(C)=O` [Example 4, 4,6-Di-O-acetyl-2-deoxy-D-glucose] gave an IC50 of 1.7 mM.

For `CC(=O)OCC1OC(O)CC(OC(C)=O)C1O` (stereo not shown) [Example 5], the 50% inhibitory concentration (IC50) in data set [1] was 1.6 mM.

Take `CC(=O)OCC1OC(O)CC(O)C1O` [Example 6, 6-O-acetyl-2-deoxy-D-glucose]: in data set [2] (brain), the “duration of active concentrations of 2-DG at the site of action (brain) relative to 2-DG alone” value is recorded as “more than twice as long”.

By IC50 is commonly meant the concentration that inhibits the measured activity by half. Higher therefore signals lower potency.
